Reference: patent US12533327B2, “Hexylamine salts and methods of using hexylamine” (priority 2019, dated 2026)
Where a name gives a salt, the structure may show the parent alone.

Key:
human subjects [1] = assay type: in vivo
Description: Five human subjects were given 100-600 mg hexylamine succinate each day over a period of a month or four weeks (see Table 1).
Over the course of the treatment period, two of the subjects who ingested hexylamine daily experienced a weight loss of 3 pounds without making any changes to their diet or exercise regimen. With the administration of 600 mg hexylamine succinate (equaling 276 mg of hexylamine base), the subjects' body temperature would rise by about 0.5° C.
None of the subjects experienced any of the toxic side effects described for too much exposure hexylamine, which include, burning sensation, abdominal pain, shock, or collapse. However, the effectiveness would diminish with doses less than 100 mg.

human subject = test: Human tolerance of hexylamine succinate; assay type: in vivo; details: one subject, 250 lbs, daily dose increased from 100 mg
Description: A human subject (250 lbs) was administered a single 100 mg hexylamine succinate, and their tolerance to the salt was record. The daily dose was increased increased daily to determine the highest daily dose that could be tolerance by the subject. At a daily dose of 800 mg and higher, the subject reported side effects such as feelings of discomfort.

[2] = Pharmacotechnical properties of synthesized hexylamine salts (state, hygroscopicity, solubility, dissolution, stability)
[3] = Storage of hexylamine succinate in the atmosphere, water gain; assay type: physicochemical; details: over one week of storage
Description: Hexylamine succinate (structure shown in Formula II) was effectively synthesized by pouring an equimolar amount of hexylamine into succinic acid powder while continuously stirring in an ice bath so that the temperature of the salt solution would be […].

[4] = Shelf life comparison, salts left exposed to air for a month; assay type: physicochemical
Text: FIG. 1 depicts a comparison of hexylamine succinate and hexylamine tartrate after being left exposed to air for a period of a month.
Hexylamine succinate and hexylamine tartrate were left exposed for a period of a month.

human = details: cited from earlier work
human subjects [5] = system: human subjects
[6] = standard temperature and pressure; cited from earlier work
human subjects [7] = test: Iowa trail making test; assay type: in vivo; details: 1000 mg tri-hexylamine citrate oral vs placebo
Text: The Iowa trail making test assesses visual attention and task switching. In map A, the subject is to draw lines to connect circled numbers in a numerical sequence (1-2-3- . . . ) as rapidly in possible. In map B, the subject is to draw lines to connect circled numbers and letters in an alternating numeric and alphabetic sequence (1-A-2-B- . . . ) as rapidly as possible. Accordingly, map A assesses cognitive processing speed, while map B asses executive function. If the subject makes an error, it was immediately pointed it out and the subject was allowed correct it. Accordingly, errors affect the score only in that the correction of errors is included in the completion time for the task. […] Thus, hexylamine administration improves executive function.

[8] = cited from earlier work
[9] = Physiological effects of propylamine and amylamine; assay type: in vivo; details: doses starting at 300 mg
Text: Propylamine, […], a close chemical entity to hexylamine, has been used in the distant past as a sedative at doses of 2-10 grams (Page 892 of The Standard Medical Directory of North America 1902, GP Engelhard and Company, Chicago). […] Accordingly, compound having similar structure to hexylamine were expected to reduce alertness and cognitive function due to their sedative effects (from de facto slowdown of brain activity).

human subjects [10] = test: Administration of […] and caffeine, caffeine side effects; details: same subjects, 300 mg caffeine alone
[11] = Citrate salts left exposed to air for one day; assay type: physicochemical
Text: FIG. 2 depicts a comparison of monohexylamine citrate and tri-hexylamine citrate after being left exposure to air for one day.

[12] = Organoleptic properties and contact irritation of hexylamine and its salts
human subjects [13] = test: Psychomotor vigilance test via sleep-2-Peak mobile application; assay type: in vivo; details: 1000 mg oral vs placebo, p=0.0015
Text: Statistically significant results were obtained from the cognitive function tests.

human subjects [14] = test: Effect of tri-hexylamine citrate on physical performance; assay type: in vivo; details: four subjects, 1000 mg 30 minutes before exercise
Description: Four human subjects ingested 1000 mg tri-hexylamine citrate 30 minutes before performing their regular exercise.

[15] = Time course of tri-hexylamine citrate in water; assay type: physicochemical; details: one gram scattered over 100 ml water at room temperature
Description: FIG. 3 depicts a time course of tri-hexylamine citrate in water. One gram of tri-hexylamine citrate was scattered over 100 ml water at room temperature (left). About one minute after, all of the tri-hexylamine citrate was dissolved (right).

human subjects [16] = test: Activity of hexylamine salt forms on human subjects; assay type: in vivo; details: taken as a capsule, compared with other salts of hexylamine
[17] = five subjects, 100-600 mg each day for a month

What does the source list for CCCCCCN.O=C(O)CCC(=O)O [Hexylamine succinate]?
rise of body temperature (human subjects [1]; 600 mg hexylamine succinate (276 mg hexylamine base)): about 0.5 °C; appetite (human subjects [1]; [17]): reduced appetite; athletic performance (human subjects [1]; [17]): increase in athletic performance; body temperature (human subjects [1]; [17]): increased body temperature; endurance (human subjects [1]; [17]): increase in endurance; fatigue (human subjects [1]; [17]): reduction of fatigue; heart rate (human subjects [1]; [17]): increase in heart rate; increase in diastolic blood pressure, average (human subjects [1]; [17]): 2 mm; increase in systolic blood pressure, average (human subjects [1]; [17]): 8 mm; memory recollection (human subjects [1]; [17]): improved memory recollection; mental acuity (human subjects [1]; [17]): increased mental acuity; mood (human subjects [1]; [17]): improved mood; strength (human subjects [1]; [17]): increase in strength; sweating (human subjects [1]; [17]): increased sweating; daily dose at which side effects such as feelings of discomfort were reported (human subject): ≥ 800 mg; hygroscopicity [2]: non-hydroscopic; solubility in water [2]: good solubility and dissolution rate; hygroscopicity [3]: non-hygroscopic; water gained in the atmosphere [3]: less than 1%; state of the powder and moisture uptake [4]: remained a fine powder and gained little moisture

Which tolerability (human subjects [1]; five subjects, none had toxic side effects (burning sensation, abdominal pain, shock, collapse)) does the source give for CCCCCCN [Hexylamine] here?
Its tolerability is “generally well-tolerated”.

And the “dose below which the effectiveness would diminish” value (human subjects [1]; human, in vivo)?
The value was “less than 100 mg”.

What about the weight loss (human subjects [1]; two of the subjects, daily ingestion over the treatment period, no change of diet or exercise) of the same compound?
Its weight loss is 3 pounds.

And the toxicity label (human; Phytochemical Dictionary, second edition)?
Its toxicity label is “highly toxic in any quantity”.

What about the “blood pressure and other physiological effects” value (human; administered to a human (Alles 1941)) of the same compound?
Its value is “no change in blood pressure or any other physiological effect was observed”.

What about the “discomfort or serious side effects” value (human subjects [5]; twelve healthy subjects, 1000 mg oral, blinded crossover vs placebo) of the same compound?
The value was “None of the subjects experienced any discomfort or any serious side effect”.

And the “solubility in organic solvents” value [6]?
Its value is “soluble in almost all organic solvents”.

And the “average completion time, map A” value (human subjects [7]; not statistically significant)?
The value was “reduced the average time”.

And the “change of average completion time, map B” value (human subjects [7]; p=0.0020)?
The value was -12.5 s.

Which physiological use ([8]; doses of 2-10 grams (Standard Medical Directory of North America 1902)) does the source give for CCCN [Propylamine] here?
Its physiological use is “sedative”.

What does the source list for CCCCCN [amylamine, Amylamine]?
cardiac function, heartbeat and body temperature ([8]; King's American Dispensatory 1909): reduce cardiac function, reduce heartbeat, and reduce body temperature; body temperature [9]: a drop in body temperature; heart rate [9]: reduction in heart rate

Which “jittery sensation or caffeine crash” value (human subjects [10]) does the source give for Cn1c(=O)c2c(ncn2C)n(C)c1=O [caffeine] here?
The value was “experience at leas tone of these side effects”.

Which “state of the powder and moisture uptake” value [4] does the source give for CCCCCCN.O=C(O)C(O)C(O)C(=O)O (stereo not shown) [hexylamine tartrate] here?
Its value is “absorbed moisture from the atmosphere and suffered from extensive caking”.

Which results are given for CCCCCCN.O=C(O)CC(O)(CC(=O)O)C(=O)O [mono-hexylamine citrate]?
dissolution rate in water [2]: much slower dissolution rate in water; hygroscopicity [2]: very hygroscopic; state of the salt [11]: hardened into a solid mass

Which “effect on contact with skin, tongue or mouth” value [12] does the source give for O=[N+]([O-])O [nitrate] here?
Its value is “very irritating on contact with the skin or mouth”.

Which “change of average reaction time” value (human subjects [13]) does the source give for CCCCCCN [tri-hexylamine citrate] here?
Its value is -70.1 ms.

And the “reduction of average reaction time” value (human subjects [13])?
Its value is 18%.

What about the “focus and energy, self-reported” value (human subjects [14]) of the same compound?
Its value is “feeling more focused and energetic”.

What about the “sense of fatigue during and after exercise” value (human subjects [14]) of the same compound?
The value was “reduced sense of fatigue”.

What about the “repetitions on knee extensions and bench press” value (human subjects [14]; vs no supplement) of the same compound?
The value was “greater number of repetitions”.

And the “time to exhaustion on the treadmill” value (human subjects [14]; vs no supplement)?
Its value is “longer time to exhaustion”.

What about the “dissolution rate in water” value [2] of the same compound?
The value was “dissolves faster than all other salts of hexylamine in water”.

And the “stability of the salt” value [2]?
The value was “very stable salt”.

And the “state of the salt” value [11]?
Its value is “suffered from some caking”.

What about the “time until all was dissolved” value [15] of the same compound?
The value was “About one”.

What about the onset of effect (human subjects [16]) of the same compound?
The onset of effect was “has a faster effect on human subjects”.

What about the “diastolic pressure, group” value (human subjects [5]; 1000 mg oral vs placebo) of the same compound?
The value was “no significant difference”.

What about the “heart rate, group” value (human subjects [5]; 1000 mg oral vs placebo) of the same compound?
The value was “no significant difference”.

And the “systolic blood pressure, group” value (human subjects [5]; 1000 mg oral vs placebo)?
The value was “no significant difference”.

What about the self-mood assessment test (human subjects [5]; 1000 mg oral vs placebo, scale 1-10) of the same compound?
The self-mood assessment test was “did not show any statistically significant results”.

What about the blood pressure (human subjects [5]; 1000 mg oral vs placebo, up to 50 minutes after administration) of the same compound?
Its blood pressure is “largely unaffected”.
